In PubChem BioAssay (NCI):
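1) Cells in 96-well plates. 2) Compound, 48 h, 5 concentrations. 3) Linear interpolation between surrounding doses. 4) Unreached endpoint = highest concentration. GI50: concentration for 50% inhibition of growth. TGI: concentration producing complete growth inhibition.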

Key:
Test in all cases: NCI-60 cell line screen, 48 h
[1] = tested on: SF-539 CNS
[2] = tested on: KM12 colon
[3] = tested on: OVCAR-5 ovarian
[4] = tested on: SF-295 CNS
[5] = tested on: HCC-2998 colon
[6] = tested on: A498 renal
[7] = tested on: TK-10 renal
[8] = tested on: MDA-MB-231 breast
[9] = tested on: UACC-62 melanoma
[10] = tested on: HS 578T breast
[11] = tested on: SK-OV-3 ovarian
[12] = tested on: HOP-92 NSCLC
[13] = tested on: M14 melanoma
[14] = tested on: BT-549 breast
[15] = tested on: PC-3 prostate
[16] = tested on: DU-145 prostate
[17] = tested on: SNB-75 CNS
[18] = tested on: HCT-15 colon
[19] = tested on: NCI-H522 lung
[20] = tested on: IGROV1 ovarian
[21] = tested on: NCI-H460 lung
[22] = tested on: SF-268 CNS
[23] = tested on: SK-MEL-28 melanoma
[24] = tested on: HT29 colon
[25] = tested on: MOLT-4 leukemia
[26] = tested on: UO-31 renal
[27] = tested on: NCI-H23 lung
[28] = tested on: UACC-257 melanoma
[29] = tested on: HOP-62 NSCLC
[30] = tested on: U251 CNS
[31] = tested on: RPMI-8226 leukemia
[32] = tested on: SNB-19 CNS
[33] = tested on: NCI/ADR-RES ovarian
[34] = tested on: CAKI-1 renal
[35] = tested on: MCF7 breast
[36] = tested on: SN12C renal
[37] = tested on: CCRF-CEM leukemia
[38] = tested on: SK-MEL-5 melanoma
[39] = tested on: NCI-H226 lung
[40] = tested on: EKVX NSCLC
[41] = tested on: A549 NSCLC
[42] = tested on: COLO 205 colon
[43] = tested on: SW-620 colon
[44] = tested on: LOX IMVI melanoma
[45] = tested on: MDA-MB-435
[46] = tested on: SR leukemia
[47] = tested on: K-562 leukemia
[48] = tested on: SK-MEL-2 melanoma
[49] = tested on: MALME-3M melanoma
[50] = tested on: ACHN renal
[51] = tested on: OVCAR-3 ovarian
[52] = tested on: HCT-116 colon
[53] = tested on: OVCAR-8 ovarian
[54] = tested on: T-47D breast
[55] = tested on: 786-0 renal
[56] = tested on: RXF 393 renal
[57] = tested on: OVCAR-4 ovarian
[58] = tested on: HL-60(TB) leukemia

In the case of `O=C1/C(=C\c2cn(CC(O)CN3CCCCC3)c3ccccc23)c2ccccc2N1c1c(Cl)cccc1Cl` (stereo unspecified), the GI50 [1] is reported as 1680 nM, the TGI [1] is reported as 3.18 µM and the GI50 [2] is reported as 1.89 µM. The TGI [2] was 3.37 µM, the GI50 [3] was 1.57 µM and the TGI [3] was 2.92 µM. For the same compound, the GI50 [4] was 1.8 µM, the TGI [4] was 3.3 µM and the GI50 [5] was 1.73 µM. The TGI [5] was 3.16 µM, the GI50 [6] was 1700 nM and the TGI [6] was 3.24 µM. The GI50 [7] was 1.82 µM, the TGI [7] was 3.29 µM and the GI50 [8] was 1.79 µM. It also gave a TGI [8] of 3.21 µM, a GI50 [9] of 1.76 µM and a TGI [9] of 3.2 µM. For the same compound, the GI50 [10] was 2.27 µM, the TGI [10] was 5.78 µM and the GI50 [11] was 1.63 µM. The TGI [11] was 3.13 µM, the GI50 [12] was 1590 nM and the TGI [12] was 3.2 µM. For the same compound, the GI50 [13] was 1.66 µM, the TGI [13] was 3.1 µM and the GI50 [14] was 1710 nM. It also gave a TGI [14] of 3.18 µM, a GI50 [15] of 1.41 µM and a TGI [15] of 2.81 µM. It also gave a GI50 [16] of 1.88 µM, a TGI [16] of 3.32 µM and a GI50 [17] of 1300 nM. It also gave a TGI [17] of 2630 nM.

`COc1ccc(Cn2c3c(c4c(O)cccc42)C(=O)c2ccccc2-3)cc1` showed a GI50 [2] of 7.65 µM, a TGI [2] of 22 µM and a GI50 [18] of 16.1 µM. For the same compound, the TGI [18] was 89.8 µM, the GI50 [19] was 12.3 µM and the TGI [19] was 93.1 µM. For the same compound, the GI50 [20] was 11.2 µM, the TGI [20] was > 100 µM and the GI50 [21] was 12.8 µM. The TGI [21] was 36.5 µM, the GI50 [22] was 8.75 µM and the TGI [22] was 29.1 µM. For the same compound, the GI50 [3] was 10 µM, the TGI [3] was 21.6 µM and the GI50 [23] was 11.6 µM. The TGI [23] was 25 µM, the GI50 [24] was 16 µM and the TGI [24] was 38.5 µM. It also gave a GI50 [4] of 12.6 µM, a TGI [4] of 26.2 µM and a GI50 [25] of 15.8 µM. The TGI [25] was 49.3 µM, the GI50 [26] was 13.8 µM and the TGI [26] was 67.7 µM. The GI50 [27] was 9.24 µM, the TGI [27] was 22 µM and the GI50 [5] was 8.26 µM. It also gave a TGI [5] of 21.7 µM, a GI50 [28] of 11.7 µM and a TGI [28] of 27.2 µM. It also gave a GI50 [29] of 4.39 µM, a TGI [29] of 14.9 µM and a GI50 [30] of 14.1 µM. It also gave a TGI [30] of 27.1 µM, a GI50 [31] of 11.8 µM and a TGI [31] of 33.9 µM. It also gave a GI50 [7] of 4.36 µM, a TGI [7] of 18.3 µM and a GI50 [32] of 6.05 µM. For the same compound, the TGI [32] was 23.4 µM, the GI50 [33] was 2510 nM and the TGI [33] was 11.3 µM. The GI50 [34] was 14.9 µM, the TGI [34] was 29.6 µM and the GI50 [8] was 12.8 µM. It also gave a TGI [8] of 25.4 µM, a GI50 [35] of 10.7 µM and a TGI [35] of 28.1 µM. It also gave a GI50 [36] of 15.6 µM, a TGI [36] of 29 µM and a GI50 [37] of 73.6 µM. For the same compound, the TGI [37] was > 100 µM, the GI50 [38] was 7.76 µM and the TGI [38] was 20.6 µM. For the same compound, the GI50 [39] was 13.4 µM, the TGI [39] was 32.8 µM and the GI50 [9] was 14.5 µM. The TGI [9] was 30.1 µM, the GI50 [10] was 4.44 µM and the TGI [10] was 20.4 µM. The GI50 [11] was 14.9 µM, the TGI [11] was 28.1 µM and the GI50 [40] was 12 µM. For the same compound, the TGI [40] was 27.7 µM, the GI50 [12] was 233 nM and the TGI [12] was 4.23 µM. For the same compound, the GI50 [41] was 8.52 µM, the TGI [41] was 32 µM and the GI50 [42] was 25.9 µM. It also gave a TGI [42] of 92.3 µM, a GI50 [13] of 14.4 µM and a TGI [13] of 38 µM. For the same compound, the GI50 [15] was 12.8 µM, the TGI [15] was 25.4 µM and the GI50 [16] was 12.5 µM. It also gave a TGI [16] of 24.9 µM, a GI50 [43] of 12.6 µM and a TGI [43] of 36.9 µM. It also gave a GI50 [44] of 18.8 µM, a TGI [44] of 47.8 µM and a GI50 [45] of 13.3 µM. It also gave a TGI [45] of 30.8 µM, a GI50 [46] of 13.9 µM and a TGI [46] of 30.5 µM. For the same compound, the GI50 [47] was 24.3 µM, the TGI [47] was > 100 µM and the GI50 [48] was 18.2 µM. It also gave a TGI [48] of 45.9 µM, a GI50 [49] of 8.71 µM and a TGI [49] of 22.4 µM. It also gave a GI50 [50] of 5.14 µM, a TGI [50] of 16.6 µM and a GI50 [51] of 14.3 µM. For the same compound, the TGI [51] was 28.7 µM, the GI50 [52] was 9.16 µM and the TGI [52] was 21.5 µM. For the same compound, the GI50 [53] was 3.08 µM, the TGI [53] was 13.2 µM and the GI50 [54] was 11 µM. It also gave a TGI [54] of 37.9 µM, a GI50 [55] of 4.02 µM and a TGI [55] of 16.7 µM.

In the case of `CC(C)(CO)NC(=O)c1cccc(C(=O)NC(C)(C)CO)c1Br`, the TGI [1] is reported as > 100 µM, the TGI [2] is reported as > 100 µM and the TGI [18] is reported as > 100 µM. For the same compound, the TGI [20] was > 100 µM, the TGI [21] was > 100 µM and the TGI [22] was > 100 µM. For the same compound, the TGI [3] was > 100 µM, the TGI [23] was > 100 µM and the TGI [24] was > 100 µM. The TGI [25] was > 100 µM, the TGI [26] was > 100 µM and the TGI [27] was > 100 µM. The TGI [5] was > 100 µM, the TGI [28] was > 100 µM and the TGI [29] was > 100 µM. The TGI [30] was > 100 µM, the TGI [31] was > 100 µM and the TGI [56] was > 100 µM. The TGI [7] was > 100 µM, the TGI [32] was > 100 µM and the TGI [33] was > 100 µM. For the same compound, the TGI [34] was > 100 µM, the TGI [8] was > 100 µM and the TGI [35] was > 100 µM. The TGI [38] was > 100 µM, the TGI [39] was > 100 µM and the TGI [9] was > 100 µM. The TGI [40] was > 100 µM, the TGI [12] was > 100 µM and the TGI [41] was > 100 µM. For the same compound, the TGI [42] was > 100 µM, the TGI [13] was > 100 µM and the TGI [14] was > 100 µM. For the same compound, the TGI [15] was > 100 µM, the TGI [16] was > 100 µM and the TGI [43] was > 100 µM. For the same compound, the TGI [17] was > 100000 nM, the TGI [44] was > 100 µM and the TGI [45] was > 100 µM. For the same compound, the TGI [46] was > 100 µM, the TGI [47] was > 100 µM and the TGI [48] was > 100 µM. For the same compound, the TGI [49] was > 100 µM, the TGI [50] was > 100 µM and the TGI [52] was > 100 µM. The TGI [57] was > 100 µM, the TGI [53] was > 100 µM and the TGI [54] was > 100 µM. For the same compound, the TGI [55] was > 100 µM and the TGI [58] was > 100 µM.
